For one test, the target named is T1, Aldo-keto reductase family 1 member B1 (Homo sapiens, UniProt P15121). Kind of test: Compound was evaluated for inhibition of human placental aldose reductase (HPAR) activity with glyceraldehyde as substrate.
`CS(=O)(=O)c1ccc(Cl)cc1-c1[nH]c(=O)[nH]c1O` came in with an IC50 of 50 nM. Same read-out and setting: the value for `C[S+]([O-])c1ccc(Cl)cc1-c1[nH]c(=O)[nH]c1O` (configuration not stated) was 250 nM.

For the next test, the target named is T1, Aldo-keto reductase family 1 member B1. Kind of test: ChEBML_157077. The text has this: Inhibition of human placental aldose reductase (HPAR) activity with glyceraldehyde as substrate
Compound `CS(=O)(=O)c1ccc(F)cc1-c1[nH]c(=O)[nH]c1O` returned an IC50 of 610 nM. For `CCCCCCS(=O)(=O)c1ccc(Cl)cc1-c1[nH]c(=O)[nH]c1O`, the IC50 is 230 nM.

`O=c1[nH]c(O)c(-c2cc(Cl)ccc2S(=O)(=O)Cc2ccc(Cl)cc2)[nH]1` showed an IC50 of 270 nM.

`CCCNS(=O)(=O)c1ccc(Cl)cc1-c1[nH]c(=O)[nH]c1O` had an IC50 of 580 nM. `CCCS(=O)(=O)c1ccc(Cl)cc1-c1[nH]c(=O)[nH]c1O` came in with an IC50 of 250 nM. Still for that read-out and setting: the result for `CS(=O)(=O)c1c(-c2[nH]c(=O)[nH]c2O)cc(Cl)cc1C(F)(F)F` reads 580 nM; that for `O=c1[nH]c(O)c(-c2cc(Cl)ccc2S(=O)(=O)Nc2ccc(F)cc2)[nH]1`, 230 nM; that for `Cc1cc(Cl)cc(-c2[nH]c(=O)[nH]c2O)c1S(C)(=O)=O`, 270 nM.

On to `CS(=O)(=O)c1c(Cl)cc(Cl)cc1-c1[nH]c(=O)[nH]c1O`, for which the IC50 was 610 nM. In turn, `CCCCCS(=O)(=O)c1ccc(Cl)cc1-c1[nH]c(=O)[nH]c1O` showed an IC50 of 50 nM.

By IC50 is commonly meant the concentration that gives 50% inhibition. A low value points to greater potency in that assay.

The record behind these values is BindingDB's records for doi:10.1021/jm00126a011 (Pfizer, 1989).
